Measurements published in patent US9533990B2, “Inhibitors of secretion of hepatitis B virus antigens” (priority 2010, dated 2017).

melting point | Structure (SMILES)
246 to 247 °C | Clc1ccc([C@H]2C[C@@H](c3c(Cl)cccc3Cl)n3ncnc3N2)cc1 (relative stereo) [Example 19, cis-5-(4-Chlorophenyl)-7-(2,6-dichlorophenyl)-4,5,6,7-tetrahydro-[1,2,4]triazolo[1,5-a]pyrimidine]
224 to 225 °C | Fc1ccc([C@@H]2C[C@H](c3ccc(Cl)cc3)Nc3ncnn32)c(Cl)c1 (relative stereo) [Example 21, cis-7-(2-Chloro-4-fluorophenyl)-5-(4-chlorophenyl)-4,5,6,7-tetrahydro-[1,2,4]triazolo[1,5-a]pyrimidine]
202 to 204 °C | Clc1ccc([C@H]2C[C@@H](c3ccccc3Cl)n3ncnc3N2)cc1 (relative stereo) [Example 22, cis-7-(2-Chlorophenyl)-5-(4-chlorophenyl)-4,5,6,7-tetrahydro[1,2,4]triazolo[1,5-a]pyrimidine]
194 to 195 °C | CC(C)c1ccc([C@@H]2C[C@H](c3ccc(Cl)cc3)Nc3ncnn32)cc1 (relative stereo) [Example 23, cis-5-(4-Chlorophenyl)-7-(4-isopropylphenyl)-4,5,6,7-tetrahydro[1,2,4]triazolo[1,5-a]pyrimidine]
210 to 212 °C | Clc1ccc([C@H]2C[C@@H](c3ccccc3)n3ncnc3N2)cc1 (relative stereo) [Example 24, cis-5-(4-Chlorophenyl)-7-phenyl-4,5,6,7-tetrahydro-[1,2,4]triazolo[1,5-a]pyrimidine]
271 to 272 °C | Fc1cccc(Cl)c1[C@@H]1C[C@H](c2ccccc2Cl)Nc2ncnn21 (relative stereo) [Example 25, cis-7-(2-Chloro-6-fluorophenyl)-5-(2-chlorophenyl)-4,5,6,7-tetrahydro-[1,2,4]triazolo[1,5-a]pyrimidine]
262 to 263 °C | Fc1cccc(Cl)c1[C@@H]1C[C@H](c2cccc(Cl)c2)Nc2ncnn21 (relative stereo) [Example 26, cis-7-(2-Chloro-6-fluorophenyl)-5-(3-chlorophenyl)-4,5,6,7-tetrahydro-[1,2,4]triazolo[1,5-a]pyrimidine]
240 to 241 °C | Fc1ccc([C@H]2C[C@@H](c3c(F)cccc3Cl)n3ncnc3N2)cc1 (relative stereo) [Example 27, cis-7-(2-Chloro-6-fluorophenyl)-5-(4-fluorophenyl)-4,5,6,7-tetrahydro-[1,2,4]triazolo[1,5-a]pyrimidine]
246 to 247 °C | Fc1cccc(Cl)c1[C@@H]1C[C@H](c2ccc(Br)cc2)Nc2ncnn21 (relative stereo) [Example 28, cis-5-(4-Bromophenyl)-7-(2-chloro-6-fluorophenyl)-4,5,6,7-tetrahydro-[1,2,4]triazolo[1,5-a]pyrimidine]
230 to 231 °C | CCc1ccc([C@H]2C[C@@H](c3c(F)cccc3Cl)n3ncnc3N2)cc1 (relative stereo) [Example 29, cis-7-(2-Chloro-6-fluorophenyl)-5-(4-ethylphenyl)-4,5,6,7-tetrahydro-[1,2,4]triazolo[1,5-a]pyrimidine]
221 to 222 °C | COc1ccc([C@H]2C[C@@H](c3c(F)cccc3Cl)n3ncnc3N2)cc1 (relative stereo) [Example 30, cis-7-(2-Chloro-6-fluorophenyl)-5-(4-methoxyphenyl)-4,5,6,7-tetrahydro-[1,2,4]triazolo[1,5-a]pyrimidine]
213 to 215 °C | Fc1cccc(Cl)c1[C@@H]1C[C@H](c2ccc(-c3ccccc3)cc2)Nc2ncnn21 (relative stereo) [Example 31, cis-5-([1,1′-Biphenyl]-4-yl)-7-(2-chloro-6-fluorophenyl)-4,5,6,7-tetrahydro-[1,2,4]triazolo[1,5-a]pyrimidine]
224 to 225 °C | Fc1cccc(Cl)c1[C@@H]1C[C@H](c2ccc3ccccc3c2)Nc2ncnn21 (relative stereo) [Example 32, cis-7-(2-Chloro-6-fluorophenyl)-5-(naphthalen-2-yl)-4,5,6,7-tetrahydro-[1,2,4]triazolo[1,5-a]pyrimidine]
252 to 254 °C | Fc1cccc(Cl)c1[C@@H]1C[C@H](c2ccc(Cl)c(Cl)c2)Nc2ncnn21 (relative stereo) [Example 33, cis-7-(2-Chloro-6-fluorophenyl)-5-(3,4-dichlorophenyl)-4,5,6,7-tetrahydro-[1,2,4]triazolo[1,5-a]pyrimidine]
267 to 269 °C | Fc1cccc(Cl)c1[C@@H]1C[C@H](c2ccc(Cl)cc2Cl)Nc2ncnn21 (relative stereo) [Example 34, cis-7-(2-Chloro-6-fluorophenyl)-5-(2,4-dichlorophenyl)-4,5,6,7-tetrahydro-[1,2,4]triazolo[1,5-a]pyrimidine]
225 °C | Fc1ccc([C@H]2C[C@@H](c3c(F)cccc3Cl)n3ncnc3N2)c(F)c1 (relative stereo) [Example 35, cis-7-(2-Chloro-6-fluorophenyl)-5-(2,4-difluorophenyl)-4,5,6,7-tetrahydro-[1,2,4]triazolo[1,5-a]pyrimidine]
223 °C | Cc1ccc([C@H]2C[C@@H](c3c(F)cccc3Cl)n3ncnc3N2)cc1C (relative stereo) [Example 36, cis-7-(2-Chloro-6-fluorophenyl)-5-(3,4-dimethylphenyl)-4,5,6,7-tetrahydro-[1,2,4]triazolo[1,5-a]pyrimidine]
270 to 271 °C | Fc1cccc(Cl)c1[C@@H]1C[C@H](c2ccccc2)Nc2ncnn21 (relative stereo) [Example 37, cis-7-(2-Chloro-6-fluorophenyl)-5-phenyl-4,5,6,7-tetrahydro-[1,2,4]triazolo[1,5-a]pyrimidine]

melting point | Structure (SMILES)
232 °C | Fc1cccc(Cl)c1[C@@H]1C[C@H](c2ccccn2)Nc2ncnn21 (relative stereo) [Example 38, cis-7-(2-Chloro-6-fluorophenyl)-5-(pyridin-2-yl)-4,5,6,7-tetrahydro-[1,2,4]triazolo[1,5-a]pyrimidine]
213 to 215 °C | Fc1cccc(Cl)c1C1C=C(c2ccc(Cl)cc2)Nc2ncnn21 (centres unmarked) [Example 1, 7-(2-Chloro-6-fluorophenyl)-5-(4-chlorophenyl)-4,7-dihydro-[1,2,4]triazolo[1,5-a]pyrimidine]
235 °C | Clc1ccc(C2=CC(c3c(Cl)cccc3Cl)n3ncnc3N2)cc1 (centres unmarked) [Example 2, 5-(4-Chlorophenyl)-7-(2,6-dichlorophenyl)-4,7-dihydro-[1,2,4]triazolo[1,5-a]pyrimidine]
250 to 251 °C | Fc1ccc(C2C=C(c3ccc(Cl)cc3)Nc3ncnn32)c(Cl)c1 (centres unmarked) [Example 4, 7-(2-Chloro-4-fluorophenyl)-5-(4-chlorophenyl)-4,7-dihydro-[1,2,4]triazolo[1,5-a]pyrimidine]
192 to 193 °C | Fc1cccc(Cl)c1C1C=C(c2ccccc2Cl)Nc2ncnn21 (centres unmarked) [Example 5, 7-(2-Chloro-6-fluorophenyl)-5-(2-chlorophenyl)-4,7-dihydro-[1,2,4]triazolo[1,5-a]pyrimidine]
246 to 248 °C | Fc1cccc(Cl)c1C1C=C(c2cccc(Cl)c2)Nc2ncnn21 (centres unmarked) [Example 6, 7-(2-Chloro-6-fluorophenyl)-5-(3-chlorophenyl)-4,7-dihydro-[1,2,4]triazolo[1,5-a]pyrimidine]
203 to 204 °C | Fc1ccc(C2=CC(c3c(F)cccc3Cl)n3ncnc3N2)cc1 (centres unmarked) [Example 7, 7-(2-Chloro-6-fluorophenyl)-5-(4-fluorophenyl)-4,7-dihydro-[1,2,4]triazolo[1,5-a]pyrimidine]
242 to 243 °C | Fc1cccc(Cl)c1C1C=C(c2ccc(Br)cc2)Nc2ncnn21 (centres unmarked) [Example 8, 5-(4-Bromophenyl)-7-(2-chloro-6-fluorophenyl)-4,7-dihydro-[1,2,4]triazolo[1,5-a]pyrimidine]
220 to 221 °C | CCc1ccc(C2=CC(c3c(F)cccc3Cl)n3ncnc3N2)cc1 (centres unmarked) [Example 9, 7-(2-Chloro-6-fluorophenyl)-5-(4-ethylphenyl)-4,7-dihydro-[1,2,4]triazolo[1,5-a]pyrimidine]
217 to 218 °C | COc1ccc(C2=CC(c3c(F)cccc3Cl)n3ncnc3N2)cc1 (centres unmarked) [Example 10, 7-(2-Chloro-6-fluorophenyl)-5-(4-methoxyphenyl)-4,7-dihydro-[1,2,4]triazolo[1,5-a]pyrimidine]
267 °C | Fc1cccc(Cl)c1C1C=C(c2ccc(-c3ccccc3)cc2)Nc2ncnn21 (centres unmarked) [Example 11, 5-([1,1′-Biphenyl]-4-yl)-7-(2-chloro-6-fluorophenyl)-4,7-dihydro-[1,2,4]triazolo[1,5-a]pyrimidine]
237 °C | Fc1cccc(Cl)c1C1C=C(c2ccc3ccccc3c2)Nc2ncnn21 (centres unmarked) [Example 12, 7-(2-Chloro-6-fluorophenyl)-5-(naphthalen-2-yl)-4,7-dihydro-[1,2,4]triazolo[1,5-a]pyrimidine]
246 to 247 °C | Fc1cccc(Cl)c1C1C=C(c2ccc(Cl)c(Cl)c2)Nc2ncnn21 (centres unmarked) [Example 13, 7-(2-Chloro-6-fluorophenyl)-5-(3,4-dichlorophenyl)-4,7-dihydro-[1,2,4]triazolo[1,5-a]pyrimidine]
209 to 211 °C | Fc1cccc(Cl)c1C1C=C(c2ccc(Cl)cc2Cl)Nc2ncnn21 (centres unmarked) [Example 14, 7-(2-Chloro-6-fluorophenyl)-5-(2,4-dichlorophenyl)-4,7-dihydro-[1,2,4]triazolo[1,5-a]pyrimidine]
186 to 188 °C | Fc1ccc(C2=CC(c3c(F)cccc3Cl)n3ncnc3N2)c(F)c1 (centres unmarked) [Example 15, 7-(2-Chloro-6-fluorophenyl)-5-(2,4-difluorophenyl)-4,7-dihydro-[1,2,4]triazolo[1,5-a]pyrimidine]
217 to 218 °C | Cc1ccc(C2=CC(c3c(F)cccc3Cl)n3ncnc3N2)cc1C (centres unmarked) [Example 16, 7-(2-Chloro-6-fluorophenyl)-5-(3,4-dimethylphenyl)-4,7-dihydro-[1,2,4]triazolo[1,5-a]pyrimidine]
238 to 239 °C | Fc1cccc(Cl)c1-c1cc(-c2ccc(Cl)cc2)nc2ncnn12 [Example 17, 7-(2-Chloro-6-fluorophenyl)-5-(4-chlorophenyl)-[1,2,4]triazolo[1,5-a]pyrimidine]
